Assay results as given in PubChem BioAssay AID248 (DTP/NCI, 2004).
Toxic doses and inconclusive results are not listed. No stated cut-off is given here; in the data, active means T/C of 150% or more; inactive means T/C below 125%.

Tested on: L1210 leukemia ip in BDF1 mice, survival T/C
Experiment: NCI In Vivo Anticancer Drug Screen. Data for tumor model L1210 Leukemia (intraperitoneal) in B6D2F1 (BDF1) mice
Conditions: endpoint: mean survival time, higher = longer survival
How it was run: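 Value reflects the ratio of survival in compound-treated mice to survival in vehicle-treated controls, with both groups carrying the same transplanted tumor.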

[1] = dose: 100.0 mg/kg/injection, schedule: Q04DX003 (ip), vehicle: Klucel (hydroxypropylcellulose) (HPC)
[2] = dose: 200.0 mg/kg/injection, schedule: Q04DX003 (ip), vehicle: Klucel (hydroxypropylcellulose) (HPC)
[3] = dose: 400.0 mg/kg/injection, schedule: Q04DX003 (ip), vehicle: Klucel (hydroxypropylcellulose) (HPC)
[4] = dose: 100.0 mg/kg/injection, schedule: Q01DX001 (ip), vehicle: saline
[5] = dose: 200.0 mg/kg/injection, schedule: Q01DX001 (ip), vehicle: saline
[6] = dose: 400.0 mg/kg/injection, schedule: Q01DX001 (ip), vehicle: saline
[7] = dose: 100.0 mg/kg/injection, schedule: Q04DX003 (ip), vehicle: saline with Tween-80
[8] = dose: 200.0 mg/kg/injection, schedule: Q04DX003 (ip), vehicle: saline with Tween-80
[9] = dose: 400.0 mg/kg/injection, schedule: Q04DX003 (ip), vehicle: saline with Tween-80
[10] = dose: 50.0 mg/kg/injection, schedule: Q04DX003 (ip), vehicle: Klucel (hydroxypropylcellulose) (HPC)
[11] = dose: 50.0 mg/kg/injection, schedule: Q01DX001 (ip), vehicle: saline
[12] = dose: 100.0 mg/kg/injection, schedule: Q04DX002 (ip), vehicle: Klucel (hydroxypropylcellulose) (HPC)
[13] = dose: 200.0 mg/kg/injection, schedule: Q04DX002 (ip), vehicle: Klucel (hydroxypropylcellulose) (HPC)
[14] = dose: 100.0 mg/kg/injection, schedule: Q01DX009 (ip), vehicle: Klucel (hydroxypropylcellulose) (HPC)
[15] = dose: 200.0 mg/kg/injection, schedule: Q01DX009 (ip), vehicle: Klucel (hydroxypropylcellulose) (HPC)
[16] = dose: 400.0 mg/kg/injection, schedule: Q01DX009 (ip), vehicle: Klucel (hydroxypropylcellulose) (HPC)
[17] = dose: 50.0 mg/kg/injection, schedule: Q01DX009 (ip), vehicle: Klucel (hydroxypropylcellulose) (HPC)
[18] = dose: 100.0 mg/kg/injection, schedule: Q04DX003 (ip), vehicle: saline
[19] = dose: 200.0 mg/kg/injection, schedule: Q04DX003 (ip), vehicle: saline

Measured: T/C

c1ccc2cc(SCN3CCOCC3)ccc2c1
inactive: [1] 97 % of control | [2] 101 % of control | [3] 97 % of control

O=C(O)CNC(=S)Nc1ccc(S(=O)(=O)c2ccc(NC(=S)NCC(=O)O)cc2)cc1
inactive: [4] 102 % of control | [5] 102 % of control | [6] 102 % of control

O=C1c2ccccc2C(=O)c2c(Sc3ccccc3)cccc21
inactive: [7] 96 % of control | [8] 98 % of control | [9] 95 % of control

OCC[CH2][Pb]([c]1ccccc1)([c]1ccccc1)[c]1ccccc1
inactive: dose: 3.12 mg/kg/injection, schedule: Q04DX003 (ip), vehicle: Klucel (hydroxypropylcellulose) (HPC) 94 % of control | dose: 6.25 mg/kg/injection, schedule: Q04DX003 (ip), vehicle: Klucel (hydroxypropylcellulose) (HPC) 97 % of control

C=C1C(=O)OC2/C=C(\C)CC(O)/C=C(/C)CCC12 (stereo not drawn)
inactive: dose: 12.5 mg/kg/injection, schedule: Q04DX003 (ip), vehicle: Klucel (hydroxypropylcellulose) (HPC) 96 % of control | dose: 25.0 mg/kg/injection, schedule: Q04DX003 (ip), vehicle: Klucel (hydroxypropylcellulose) (HPC) 105 % of control | [10] 100 % of control

COc1ccc(CN2CCCN(Cc3ccc(OC)cc3OC)C2c2cccnc2)c(OC)c1
inactive: [11] 94 % of control | [4] 100 % of control | [5] 103 % of control | [6] 100 % of control

C=C1c2ccccc2N(C)C1(COc1ccc(Br)cc1)OC(=O)c1cccc(Cl)c1 (stereo not drawn)
inactive: [12] 95 % of control | [13] 95 % of control | dose: 400.0 mg/kg/injection, schedule: Q04DX002 (ip), vehicle: Klucel (hydroxypropylcellulose) (HPC) 98 % of control

CCC1(C)CC(=O)N(C/C=C(\C)CCC=C(C)C)C(=O)C1
inactive: [7] 100 % of control | [8] 105 % of control | [9] 97 % of control

CCNC(=O)Nc1ccc(C)cc1C
inactive: [14] 94 % of control | [1] 96 % of control | [15] 103 % of control | [2] 96 % of control | [16] 105 % of control | [3] 95 % of control

CN1CCC(SC(=O)C(O)(c2ccccc2)c2ccccc2)CC1
inactive: dose: 75.0 mg/kg/injection, schedule: Q01DX001 (ip), vehicle: saline 94 % of control | dose: 150.0 mg/kg/injection, schedule: Q01DX001 (ip), vehicle: saline 95 % of control

OCCCc1ccccc1O
inactive: [11] 102 % of control | [4] 102 % of control | [5] 94 % of control | [6] 91 % of control

Nc1nc(=S)[nH]c(C(=O)O)c1Oc1ccccc1
inactive: [17] 87 % of control | [10] 86 % of control | dose: 100.0 mg/kg/injection, schedule: Q01DX001 (ip), vehicle: Klucel (hydroxypropylcellulose) (HPC) 92 % of control | [14] 102 % of control | [1] 89 % of control | dose: 200.0 mg/kg/injection, schedule: Q01DX001 (ip), vehicle: Klucel (hydroxypropylcellulose) (HPC) 94 % of control | [15] 95 % of control | [2] 87 % of control

CC(=O)Nc1ccc(NC(C)=O)c2c1C(=O)c1ccccc1C2=O
inactive: dose: 100.0 mg/kg/injection, schedule: Q01DX009 (ip), vehicle: saline with Tween-80 94 % of control | [7] 119 % of control | dose: 200.0 mg/kg/injection, schedule: Q01DX009 (ip), vehicle: saline with Tween-80 96 % of control | [8] 112 % of control | dose: 400.0 mg/kg/injection, schedule: Q01DX009 (ip), vehicle: saline with Tween-80 91 % of control | [9] 93 % of control

Nc1nc(N)nc(COc2ccccc2Cl)n1
inactive: [12] 119 % of control | [13] 90 % of control

O=C1OC(=O)c2c3c(c4c(c21)CCC4)CCC3
inactive: dose: 50.0 mg/kg/injection, schedule: Q01DX009 (ip), vehicle: saline 107 % of control | [4] 100 % of control | dose: 100.0 mg/kg/injection, schedule: Q01DX009 (ip), vehicle: saline 93 % of control | [18] 101 % of control | [5] 91 % of control | dose: 200.0 mg/kg/injection, schedule: Q01DX009 (ip), vehicle: saline 94 % of control | [19] 96 % of control | [6] 97 % of control

CCOC(=O)C1=C(C#N)C(C(=O)OCC)c2ncccc21 (stereo not drawn)
inactive: dose: 50.0 mg/kg/injection, schedule: Q01DX005 (ip), vehicle: saline 97 % of control | dose: 100.0 mg/kg/injection, schedule: Q01DX005 (ip), vehicle: saline 88 % of control | dose: 200.0 mg/kg/injection, schedule: Q01DX005 (ip), vehicle: saline 87 % of control | dose: 400.0 mg/kg/injection, schedule: Q01DX005 (ip), vehicle: saline 95 % of control

CCOC(=O)c1cc([N+](=O)[O-])oc1C
inactive: [14] 102 % of control | [1] 98 % of control | [15] 102 % of control | [2] 94 % of control | [16] 112 % of control | [3] 100 % of control

CCC[CH2][Sn]([CH2]CCC)([CH2]CCC)[CH2]c1ccccc1
inactive: [18] 98 % of control | [19] 102 % of control | dose: 400.0 mg/kg/injection, schedule: Q04DX003 (ip), vehicle: saline 88 % of control

Nc1cccc2c1C(=O)c1cccc(NC(=O)c3ccccc3)c1C2=O
inactive: dose: 6.25 mg/kg/injection, schedule: Q01DX009 (ip), vehicle: Klucel (hydroxypropylcellulose) (HPC) 89 % of control | dose: 12.5 mg/kg/injection, schedule: Q01DX009 (ip), vehicle: Klucel (hydroxypropylcellulose) (HPC) 92 % of control | dose: 25.0 mg/kg/injection, schedule: Q01DX009 (ip), vehicle: Klucel (hydroxypropylcellulose) (HPC) 89 % of control | [17] 108 % of control | [14] 95 % of control | [1] 96 % of control | [15] 95 % of control | [2] 91 % of control | [16] 99 % of control | [3] 90 % of control

O=C(O)c1c(Br)c(Br)c(Br)c(Br)c1C(=O)Nc1ccccc1F
inactive: [14] 93 % of control | [15] 96 % of control

O=C(O)c1cccnc1Br
inactive: [7] 105 % of control | [8] 101 % of control | [9] 100 % of control

COc1ccc(NCC(O)CN2CCCCC2)cc1 (stereo not drawn)
inactive: [4] 94 % of control

COc1ccccc1N=Nc1c(O)[nH]c2ccccc12
inactive: [4] 96 % of control | [5] 96 % of control | [6] 102 % of control

N#Cc1nnn(-c2ccccc2)n1
inactive: dose: 25.0 mg/kg/injection, schedule: Q01DX009 (ip), vehicle: acetone 101 % of control | dose: 50.0 mg/kg/injection, schedule: Q01DX009 (ip), vehicle: acetone 111 % of control | dose: 50.0 mg/kg/injection, schedule: Q04DX003 (ip), vehicle: acetone 93 % of control | dose: 100.0 mg/kg/injection, schedule: Q01DX001 (ip), vehicle: acetone 99 % of control | dose: 100.0 mg/kg/injection, schedule: Q04DX003 (ip), vehicle: acetone 88 % of control | dose: 200.0 mg/kg/injection, schedule: Q01DX001 (ip), vehicle: acetone 99 % of control
